The subject of assay [1] is mammary and salivary carcinomas. To be noted: daily administration; ras transgenic mice; cited from earlier work.
The target of assay [2] is T1, protein:farnesyl transferase (PFT), SF9 affinity purified rat FPT (Rattus norvegicus, UniProt Q02293+Q04631).
T1 construct: made in house
The experiment in a line: PFT (FPT) inhibitory activity, radiolabeled farnesyl pyrophosphate / biotinyl peptide streptavidin bead assay. Format: biochemical. The method, then: The pharmaceutical utility of compounds of this invention was established by the following standard assay which measures inhibition of the enzyme protein:farnesyl transferase (PFT), also referred to as farnesyl protein transferase (FPT).
The PFT (or FPT) inhibitory activity of compounds of the present invention was assayed in HEPES buffer (pH 7.4) containing 5 mM potassium phosphate and 20 μM ZnCl2. The solution also contained 5 mM DTT (dithiothreitol), 5 mM MgCl2, and 0.1% PEG 8000. Assays were performed in 96 well plates (Wallec) and employed solutions composed of varying concentrations of a compound of the present invention in 10% DMSO (dimethylsulfoxide). Upon addition of both substrates, radiolabeled farnesyl pyrophosphate ([1^3H], specific activity 15-30 Ci/mmol, final concentration 134 nM) and (biotinyl)-Ahe-Thr-Lys-Cys-Val-Ile-Met ([3aS[3a alpha, 4 beta, 6a alpha]-hexahydro-2-oxo-1H-thieno[3,4-d]imidazole-5-pentanoic acid]-[7-aminoheptanoic acid]-Thr-Lys-Cys-Val-Ile-Met) (Ahe is 7-aminoheptanoic acid, Thr is threonine, Lys is lysine, Cys is cysteine, Val is valine, Ile is isoleucine, and Met is methionine) (final concentration 0.2 μM), the enzyme reaction was started by addition of SF9 affinity purified rat FPT. After incubation at 30° C. for 30 minutes, the reaction was terminated by diluting the mixture 2.5-fold with a stop buffer containing 1.5 M magnesium acetate, 0.2 M H3PO4, 0.5% BSA (bovine serum albumin), and strepavidin beads (Amersham) at a concentration of 1.3 mg/mL. After allowing the plate to settle for 30 minutes at room temperature, radioactivity was quantitated on a microBeta counter (Model 1450, Wallec). The assay was also carried out without 5 mM potassium phosphate.

The test system of assay [3] is human lung carcinoma with K-ras mutation and p53 deletion. The note with it: nude mice; cited from earlier work.
The test system of assay [4] is EJ-1 human bladder carcinoma, HT18O human fibrosarcoma, and human colon carcinoma xenografts. The note with it: 100 mg/kg; xenografts in nude mice; cited from earlier work.
[5] abbreviates: HEPES buffer pH 7.4 without 5 mM potassium phosphate, read-out: IC50 (μm) Hepes.
Where [6] appears, read: HEPES buffer pH 7.4 with 5 mM potassium phosphate, read-out: IC50 (μm) Hepes ± 5 mM Phosphate.

Molecules are shown by their SMILES. Like-named read-outs stand apart in the source and are kept apart here.

With `CC[C@H](C)[C@@H](CO[C@@H](Cc1ccccc1)C(=O)N[C@@H](CCS(C)(=O)=O)C(=O)OC(C)C)NC[C@@H](N)CS` [L-744,832], the tumor regression entry in assay [1] is listed as “caused tumor regression”.
Regarding `N#Cc1ccc(Cn2cncc2CCOc2ccc3c(c2CCc2ccccc2)CCCC3=O)cc1` [Compound 4, 4-{[5-(2-{[5-oxo-1-(2-phenylethyl)-5,6,7,8-tetrahydro-2-naphthalenyl]oxy}ethyl)-1H-imidazol-1-yl]methyl}benzonitrile], the half-inhibitory concentration (IC50) in assay [2] (setting [5]) was 0.3 nM.
As for `CSCC[C@H](NC(=O)c1ccc(NC[C@@H](N)CS)cc1-c1ccccc1)C(=O)O` [FTI276], in assay [3], the tumor growth entry is listed as “selectively block tumor growth”.
For the compound `COC(=O)[C@H](CCSC)NC(=O)[C@H](/C=C\[C@@H](/C=C/[C@@H](N)CS)C(C)C)Cc1ccccc1` [Compound B1086], the tumor growth inhibition entry in assay [4] is “inhibit tumor growth”.
As for `N#Cc1ccc(Cn2cncc2CCOc2ccc3c(c2CS(=O)(=O)c2ccccn2)CCCC3=O)cc1` [Compound 28, 4-({5-[2-({5-oxo-1-[(2-pyridinylsulfonyl)methyl]-5,6,7,8-tetrahydro-2-naphthalenyl}oxy)ethyl]-1H-imidazol-1-yl}methyl)benzonitrile], the 50% inhibitory concentration (IC50) in assay [2] (setting [5]) turned out to be 0.3 nM.
With `CC(C)S(=O)(=O)Cc1c(OCCc2cncn2Cc2ccc(C#N)cc2)ccc2c1CCCC2=O` [Compound 29, 4-({5-[2-({1-[(isopropylsulfonyl)methyl]-5-oxo-5,6,7,8-tetrahydro-2-naphthalenyl}oxy)ethyl]-1H-imidazol-1-yl}methyl)benzonitrile], the IC50 in assay [2] (setting [5]) was 0.5 nM.
Consider `O=C1CCCc2c1ccc(OCCc1cncn1Cc1ccccc1)c2CCc1ccccc1` [Compound 3, 6-[2-(3-benzyl-3H-imidazol-4-yl)-ethoxy]-5-phenethyl-3,4-dihydro-2H-naphthalen-1-one], for which the concentration for half-maximal inhibition (IC50) was determined as 52 nM in assay [2] (setting [6]) and 73 nM in assay [2] (setting [5]).
In the same order, the values of `CCCc1c(OCCc2cncn2Cc2ccccc2)ccc2c1CCCC2=O` [Compound 2, 6-[2-(3-benzyl-3H-imidazol-4-yl)-ethoxy]-5-propyl-3,4-dihydro-2H-naphthalen-1-one] are 870 nM and 1390 nM.
For `COc1ccc(Cn2cncc2CCOc2ccc3c(c2)CCCC3=O)cc1C` [Compound 12, 6-{2-[3-(4-methoxy-3-methyl-benzyl)-3H-imidazol-4-yl]-ethoxy}-3,4-dihydro-2H-naphthalen-1-one], in that order: 22 nM and 24 nM.

Broadly, the IC50 is the point on the concentration scale where inhibition reaches its midpoint.

The values above are taken from US20030232790A1, “Dihydro-2h-napthalene-1-one inhibitors of ras farnesyl transferase” (priority 2002, published 2003).
